Measured values: ChEMBL document CHEMBL1144942, “Enantioselective responses to a phosphorothioate analogue of lysophosphatidic acid with LPA3 receptor-selective agonist activity” (J Med Chem, 2003)

Tests used:
HT-29 = assay: Agonistic activity in human HT-29 colon cancer cells; type: functional, cell-based
OVCAR-3 = assay: Agonistic activity in human OVCAR-3 (ovarian cancer cells); type: functional, cell-based

| SMILES | EC50 (HT-29) [µM] | EC50 (OVCAR-3) [µM] |
| --- | --- | --- |
| CCCCCCCCCCCCCCCCCC(=O)OC[C@H](COP(O)(O)=S)OC | < 1000 | 0.009 |
| CCCCCCCCCCCCCCCCCC(=O)OC[C@@H](COP(O)(O)=S)OC | < 1000 | 0.0465 |
